Where a name gives a salt, the structure may show the parent alone.
Assays:
Assay type in all cases: physicochemical
[1] = Equilibrium solubility in various media (shaker water bath, HPLC analysis); conditions: for Solubility (mg/ml) ± SD: 24 hrs
Protocol: Equilibrium solubility of compound of formula (I) free base and compound of formula (I) fumarate were measured in various medium. Excess quantities of compound of formula (I) and compound of formula (I) fumarate were added to glass vials containing different medium. These vials were kept for shaking in shaker water bath at appropriate temperature (25° C. for water and 37° C. for buffers) at 200 rpm. The obtained preparations were filtered and analysed by means of HPLC.

[2] = Dynamic vapor sorption (DVS) moisture uptake study; conditions: at 90% RH, 25° C.
Protocol: The moisture uptake study of compound of present invention was performed with a DVS instrument (Q5000SA, TA instruments, New Castle, Delaware, USA) at 25° C. to evaluate the physical stability of compound of present invention against moisture or tendency to adsorb moisture. The instrument consisted of a microbalance housed inside a temperature-controlled chamber. The humidity was controlled via switching valves, which control the flow of a dry gas (nitrogen) through a humidification stage. Instrument was programmed for moisture sorption from 40 to 90% RH in 10% RH steps at 25±0.1° C. using an equilibrium condition. The equilibrium condition was set to <0.01% total mass change within 10 min and with a maximum dwell time of 60 min followed by desorption from 90% RH to 10% RH steps. The equilibrium condition for desorption was set to <0.01% total mass change within 10 min and with a maximum dwell time of 60 min.

[3] = 6-month storage stability of solid form (XRPD, particle morphology); conditions: 6 months
[4] = Variable temperature X-ray diffraction (VT-XRD) physical stability; conditions: 25° C., 40° C. and 60° C.; isothermal hold of 60 min
Description: An Anton Paar temperature-humidity chamber (THC) was used to collect in situ XRPD patterns as a function of humidity. The humidity was generated with an RH-200 manufactured by VTI Inc. and carried by a flow of nitrogen gas. The humidity and temperature was monitored by a HygroClip sensor manufactured by Rotronic located next to the specimen inside the THC. XRPD patterns were collected with a PANalytical X'Pert PRO MPD diffractometer in symmetric Bragg-Brentano reflection geometry. Isothermal hold of 60 min given at specified temperature. Heating rate was kept at 10° C./min. Approximately 200 mg sample used for VT-XRD analysis. Cu Kα radiation was produced using a long, fine-focus source operated at 45 kV and 40 mA. The incident beam was conditioned using a nickel filter, a 0.02-rad Soller slit, a 11.6-mm fixed incident beam mask, a fixed 0.76-mm ½° antiscatter slit, and a fixed 0.38-mm ¼° divergence slit. The diffracted beam was conditioned using a 5-mm antiscatter slit, a 0.04-rad Soller slit. The diffraction patterns were collected using a scanning position-sensitive detector (X'Celerator) located 240 mm from the sample. Data were collected and analyzed using Data Collector software v. 5.5.
VT-XRD analysis confirmed that compound of formula (I)-fumaric acid cocrystal remained stable and no solid form transformation/phase change occurred even at higher temperature conditions. […]

[5] = Variable humidity X-ray diffraction (VH-XRD) physical stability; conditions: 40% RH to 85% RH sorption then desorption to 40% RH, 1 hr at each RH level
Protocol: An Anton Paar TTK 450 stage was used to collect in situ XRPD patterns as a function of temperature. The sample was heated with a resistance heater located directly under the sample holder, and the temperature was monitored with a platinum-100 resistance sensor located in the specimen holder. The heater was powered and controlled by an Anton Paar TCU 100 interfaced with Data Collector. Approximately 200 mg sample used for VH-XRD analysis.
The compound of present invention was exposed to various humidity conditions. The sample, i.e., compound of formula (I) fumarate, was exposed from 40% RH to 85% RH followed by desorption cycle from 85% to 40% RH. The samples were equilibrated for 1 hr at each RH level (both sorption and desorption). […] See, FIG. 6B.

[6] = pH 4.5 Acetate buffer USP, 37° C.
[7] = pH 5.8 Phosphate buffer USP, 37° C.
[8] = pH 6.8 Phosphate buffer USP, 37° C.

Solubility (mg/ml) ± SD ([1]; Purified water, 25° C.) | solubility at 24 h ([1]; pH 2.8 acid phthalate buffer USP, 37 °C, pH 2.8, aqueous buffer, thermodynamic from solid, pH 2.8 Acid Phthalate buffer USP, 37° C., read-out: Solubility (mg/ml) ± SD) | Solubility (mg/ml) ± SD [1, 6] | Solubility (mg/ml) ± SD [1, 7] | Solubility (mg/ml) ± SD [1, 8] | weight/moisture gained (DVS) [2] | solid form and particle morphology after storage ([3]; 25° C./60% RH) | solid form and particle morphology after storage ([3]; 40° C./75% RH) | physical stability at different temperature conditions (VT-XRD) [4] | Solubility (mg/ml) ± SD ([1]; pH 2.8 Acid Phthalate buffer USP, 37° C.) | physical stability at different relative humidity conditions (VH-XRD) [5] | Compound
0.0013 ± 0.0001 mg/mL | 0.065 ± 0.004 mg/mL | 0.07 ± 0.004 mg/mL | 0.002 ± 0.0001 mg/mL | 0.0005 ± 0.0002 mg/mL | – | – | – | – | – | – | CC(C)[C@H](C(=O)Nc1cc(C2CC2)[nH]n1)c1cccc(-c2ccc(NC(=O)/C=C/CN3CCOCC3)nc2)c1 [Formula (I) free base, (S, E)-N-(5-(3-(1-((5-cyclopropyl-1H-pyrazol-3-yl)amino)-3-methyl-1-oxobutan-2-yl)phenyl)pyridin-2-yl)-4-morpholinobut-2-enamide]
0.280 ± 0.004 mg/mL | – | 0.171 ± 0.001 mg/mL | 0.014 ± 0.004 mg/mL | 0.014 ± 0.009 mg/mL | About 0.646 % w/w | remained unchanged | remained unchanged | physically stable | 0.114 ± 0.017 mg/mL | remained physically stable | CC(C)[C@H](C(=O)Nc1cc(C2CC2)[nH]n1)c1cccc(-c2ccc(NC(=O)/C=C/CN3CCOCC3)nc2)c1 [Formula (I) fumarate]
